Data on two compounds can be found in patent US20190053495A1, “POLYMERIC TOPICAL ANTISEPTIC COMPOUND AND METHOD OF USE” (priority 2017, published 2019).

Series [1] is described as follows: Film thickness of skin scaffold by Dual Polarization Interferometry. The series is classed as physicochemical. From the text: Film thickness of skin scaffold of polymer 1-Octadecanaminium NN Dimethyl (3 Trihydroxysilyl)propyl chloride polymer with Dual Polarization interferometry.
For series [2] the following is noted: 2 g/kg applied to 10% of shaven skin, ten test animals, Study Day 1; cited from earlier work.

In series [1] (40 seconds post injection), `CCCCCCCCCCCCCCCCCC[N+](C)(C)CCC[Si](OC)(OC)OC.[Cl-]` [ODTMSPC, 1-Octadecanaminium, N,N, Dimethyl-N-[(3-trimethoxysilyl)propyl] chloride] yielded an MASS of 3.83 ngmm^−2 and a THICKNESS of 41.31 nm. In series [1] (10 minutes post injection), this compound registered an MASS of 3.76 ngmm^−2 and a THICKNESS of 33.51 nm.
On to “alkyldimethylbenzylammonium chloride [Benzalkonium chloride]”, for which the “Skin reaction at the application site” value in series [2] was “all test animals exhibit erythema, and edema at the application site”.
